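96-well plates; 48 h exposure; 5 concentrations. Endpoints by linear interpolation between flanking doses. Not reached: highest tested concentration assigned. At the TGI there is no net growth.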
Columns and labels:
Assay in all cases: NCI tumour cell line growth inhibition, 48 h
U251 CNS = test system: U251 CNS
ACHN renal = test system: ACHN renal
HOP-92 NSCLC = test system: HOP-92 NSCLC
MDA-MB-435 = test system: MDA-MB-435
HCT-116 colon = test system: HCT-116 colon
SNB-19 CNS = test system: SNB-19 CNS
M14 melanoma = test system: M14 melanoma
UACC-62 melanoma = test system: UACC-62 melanoma
PC-3 prostate = test system: PC-3 prostate
NCI-H226 lung = test system: NCI-H226 lung
MCF7 breast = test system: MCF7 breast
CAKI-1 renal = test system: CAKI-1 renal
SK-MEL-5 melanoma = test system: SK-MEL-5 melanoma
BT-549 breast = test system: BT-549 breast
UO-31 renal = test system: UO-31 renal
TK-10 renal = test system: TK-10 renal
KM12 colon = test system: KM12 colon
SW-620 colon = test system: SW-620 colon
OVCAR-5 ovarian = test system: OVCAR-5 ovarian
SF-295 CNS = test system: SF-295 CNS
OVCAR-4 ovarian = test system: OVCAR-4 ovarian
SN12C renal = test system: SN12C renal
T-47D breast = test system: T-47D breast
MDA-N = test system: MDA-N
COLO 205 colon = test system: COLO 205 colon
NCI-H23 lung = test system: NCI-H23 lung
HCC-2998 colon = test system: HCC-2998 colon
MDA-MB-231 breast = test system: MDA-MB-231 breast
HL-60(TB) leukemia = test system: HL-60(TB) leukemia
NCI/ADR-RES ovarian = test system: NCI/ADR-RES ovarian
SF-539 CNS = test system: SF-539 CNS
CCRF-CEM leukemia = test system: CCRF-CEM leukemia
SK-OV-3 ovarian = test system: SK-OV-3 ovarian
HS 578T breast = test system: HS 578T breast
K-562 leukemia = test system: K-562 leukemia
HT29 colon = test system: HT29 colon
DU-145 prostate = test system: DU-145 prostate
HOP-62 NSCLC = test system: HOP-62 NSCLC
A498 renal = test system: A498 renal
HCT-15 colon = test system: HCT-15 colon
NCI-H522 lung = test system: NCI-H522 lung
IGROV1 ovarian = test system: IGROV1 ovarian
LOX IMVI melanoma = test system: LOX IMVI melanoma
MOLT-4 leukemia = test system: MOLT-4 leukemia
SK-MEL-28 melanoma = test system: SK-MEL-28 melanoma
SF-268 CNS = test system: SF-268 CNS
A549 NSCLC = test system: A549 NSCLC
NCI-H460 lung = test system: NCI-H460 lung
SR leukemia = test system: SR leukemia
OVCAR-8 ovarian = test system: OVCAR-8 ovarian
EKVX NSCLC = test system: EKVX NSCLC
OVCAR-3 ovarian = test system: OVCAR-3 ovarian
UACC-257 melanoma = test system: UACC-257 melanoma
MALME-3M melanoma = test system: MALME-3M melanoma
RXF 393 renal = test system: RXF 393 renal
RPMI-8226 leukemia = test system: RPMI-8226 leukemia
786-0 renal = test system: 786-0 renal
SK-MEL-2 melanoma = test system: SK-MEL-2 melanoma
SNB-75 CNS = test system: SNB-75 CNS

**Q.** How did the TGI (U251 CNS) turn out when `CC(=O)OC[C@H]1[C@@H]2C(CC[C@]13CO3)OC(=O)CC(C)[C@]2(C)CCc1ccoc1` (stereo not given in full) was run?
**A.** Its TGI is over 100 µM.

**Q.** And the TGI (ACHN renal)?
**A.** The TGI was over 100 µM.

**Q.** And the TGI (HOP-92 NSCLC)?
**A.** The TGI was over 100 µM.

**Q.** And the TGI (MDA-MB-435)?
**A.** Its TGI is over 100 µM.

**Q.** What about the TGI (HCT-116 colon) of the same molecule?
**A.** Its TGI is over 100 µM.

**Q.** And the TGI (SNB-19 CNS)?
**A.** Its TGI is over 100 µM.

**Q.** And the TGI (M14 melanoma)?
**A.** The TGI was over 100 µM.

**Q.** What about the TGI (UACC-62 melanoma) of the same molecule?
**A.** Its TGI is over 100 µM.

**Q.** What about the TGI (PC-3 prostate) of the same molecule?
**A.** Its TGI is over 100 µM.

**Q.** And the TGI (NCI-H226 lung)?
**A.** Its TGI is over 100 µM.

**Q.** And the TGI (MCF7 breast)?
**A.** The TGI was over 100 µM.

**Q.** What about the TGI (CAKI-1 renal) of the same molecule?
**A.** Its TGI is over 100 µM.

**Q.** What about the TGI (SK-MEL-5 melanoma) of the same molecule?
**A.** Its TGI is over 100 µM.

**Q.** And the TGI (BT-549 breast)?
**A.** The TGI was over 100 µM.

**Q.** And the TGI (UO-31 renal)?
**A.** Its TGI is over 100 µM.

**Q.** What about the TGI (TK-10 renal) of the same molecule?
**A.** Its TGI is over 100 µM.

**Q.** And the TGI (KM12 colon)?
**A.** Its TGI is over 100 µM.

**Q.** What about the TGI (SW-620 colon) of the same molecule?
**A.** Its TGI is over 100 µM.

**Q.** What about the TGI (OVCAR-5 ovarian) of the same molecule?
**A.** Its TGI is over 100 µM.

**Q.** What about the TGI (SF-295 CNS) of the same molecule?
**A.** Its TGI is over 100 µM.

**Q.** What about the TGI (OVCAR-4 ovarian) of the same molecule?
**A.** Its TGI is over 100 µM.

**Q.** And the TGI (SN12C renal)?
**A.** Its TGI is over 100 µM.

**Q.** And the TGI (T-47D breast)?
**A.** The TGI was over 100 µM.

**Q.** What about the TGI (MDA-N) of the same molecule?
**A.** The TGI was over 100 µM.

**Q.** And the TGI (COLO 205 colon)?
**A.** Its TGI is over 100 µM.

**Q.** And the TGI (NCI-H23 lung)?
**A.** Its TGI is over 100 µM.

**Q.** And the TGI (HCC-2998 colon)?
**A.** The TGI was over 100 µM.

**Q.** What about the TGI (MDA-MB-231 breast) of the same molecule?
**A.** The TGI was over 100 µM.

**Q.** What about the TGI (HL-60(TB) leukemia) of the same molecule?
**A.** Its TGI is over 100 µM.

**Q.** And the TGI (NCI/ADR-RES ovarian)?
**A.** The TGI was over 100 µM.

**Q.** What about the TGI (SF-539 CNS) of the same molecule?
**A.** The TGI was over 100 µM.

**Q.** What about the TGI (CCRF-CEM leukemia) of the same molecule?
**A.** The TGI was over 100 µM.

**Q.** What about the TGI (SK-OV-3 ovarian) of the same molecule?
**A.** The TGI was over 100 µM.

**Q.** And the TGI (HS 578T breast)?
**A.** The TGI was over 100 µM.

**Q.** What about the TGI (K-562 leukemia) of the same molecule?
**A.** Its TGI is over 100 µM.

**Q.** And the TGI (HT29 colon)?
**A.** Its TGI is over 100 µM.

**Q.** What about the TGI (DU-145 prostate) of the same molecule?
**A.** Its TGI is over 100 µM.

**Q.** And the TGI (HOP-62 NSCLC)?
**A.** The TGI was over 100 µM.

**Q.** What about the TGI (A498 renal) of the same molecule?
**A.** The TGI was over 100 µM.

**Q.** What about the TGI (HCT-15 colon) of the same molecule?
**A.** The TGI was over 100 µM.

**Q.** And the TGI (NCI-H522 lung)?
**A.** The TGI was over 100 µM.

**Q.** What about the TGI (IGROV1 ovarian) of the same molecule?
**A.** Its TGI is over 100 µM.

**Q.** And the TGI (LOX IMVI melanoma)?
**A.** Its TGI is over 100 µM.

**Q.** And the TGI (MOLT-4 leukemia)?
**A.** Its TGI is over 100 µM.

**Q.** What about the TGI (SK-MEL-28 melanoma) of the same molecule?
**A.** The TGI was over 100 µM.

**Q.** What about the TGI (SF-268 CNS) of the same molecule?
**A.** The TGI was over 100 µM.

**Q.** And the TGI (A549 NSCLC)?
**A.** Its TGI is over 100 µM.

**Q.** What about the TGI (NCI-H460 lung) of the same molecule?
**A.** The TGI was over 100 µM.

**Q.** What about the TGI (SR leukemia) of the same molecule?
**A.** Its TGI is over 100 µM.

**Q.** What about the TGI (OVCAR-8 ovarian) of the same molecule?
**A.** The TGI was over 100 µM.

**Q.** And the TGI (EKVX NSCLC)?
**A.** Its TGI is over 100 µM.

**Q.** And the TGI (OVCAR-3 ovarian)?
**A.** Its TGI is over 100 µM.

**Q.** And the TGI (UACC-257 melanoma)?
**A.** Its TGI is over 100 µM.

**Q.** What about the TGI (MALME-3M melanoma) of the same molecule?
**A.** Its TGI is over 100 µM.

**Q.** And the TGI (RXF 393 renal)?
**A.** Its TGI is over 100 µM.

**Q.** What does the source list for `O=C1C(Br)=CC2(C=C1Br)CCN=c1c(O)c3c(c(O)c12)=NC=N3`?
**A.** TGI (U251 CNS): 28.4 µM; TGI (ACHN renal): 27.7 µM; TGI (HOP-92 NSCLC): 24.8 µM; TGI (MDA-MB-435): 23.4 µM; TGI (HCT-116 colon): 30.3 µM; TGI (M14 melanoma): 30.6 µM; TGI (UACC-62 melanoma): 24.2 µM; TGI (PC-3 prostate): > 100 µM; TGI (NCI-H226 lung): 37.4 µM; TGI (MCF7 breast): 28.5 µM; TGI (CAKI-1 renal): 41 µM; TGI (SK-MEL-5 melanoma): 23.4 µM; TGI (RPMI-8226 leukemia): 50.9 µM; TGI (BT-549 breast): 33.3 µM; TGI (UO-31 renal): 29.4 µM; TGI (TK-10 renal): 59 µM; TGI (KM12 colon): 30.9 µM; TGI (SW-620 colon): 31.9 µM; TGI (786-0 renal): 30 µM; TGI (OVCAR-5 ovarian): 29.4 µM; TGI (SF-295 CNS): 30 µM; TGI (OVCAR-4 ovarian): 27.8 µM; TGI (T-47D breast): 33.7 µM; TGI (SK-MEL-2 melanoma): 21.3 µM; TGI (MDA-N): 3.34 µM; TGI (COLO 205 colon): 37.6 µM; TGI (NCI-H23 lung): 26.9 µM; TGI (HCC-2998 colon): 46.3 µM; TGI (MDA-MB-231 breast): 29.4 µM; TGI (HL-60(TB) leukemia): 35 µM; TGI (NCI/ADR-RES ovarian): 52.9 µM; TGI (SF-539 CNS): 32.1 µM; TGI (CCRF-CEM leukemia): 48.9 µM; TGI (SK-OV-3 ovarian): 48.2 µM; TGI (HS 578T breast): 71.5 µM; TGI (K-562 leukemia): 41.1 µM; TGI (HT29 colon): 29.2 µM; TGI (DU-145 prostate): 29.6 µM; TGI (HOP-62 NSCLC): 31.1 µM; TGI (A498 renal): 33.2 µM; TGI (HCT-15 colon): 29.1 µM; TGI (NCI-H522 lung): 28.1 µM; TGI (LOX IMVI melanoma): 27.1 µM; TGI (SNB-75 CNS): 30.5 µM; TGI (MOLT-4 leukemia): > 100 µM; TGI (SK-MEL-28 melanoma): 29.9 µM; TGI (SF-268 CNS): 28.2 µM; TGI (A549 NSCLC): 37.9 µM; TGI (NCI-H460 lung): 32.8 µM; TGI (SR leukemia): > 100 µM; TGI (OVCAR-8 ovarian): 31.9 µM; TGI (EKVX NSCLC): 32 µM; TGI (OVCAR-3 ovarian): 29.1 µM; TGI (UACC-257 melanoma): 28 µM; TGI (RXF 393 renal): 29.9 µM
